The values that follow come from paper PMC4434572, “Identification of novel drugs to target dormant micrometastases” (BMC Cancer, 2015).

Each structure is given as a SMILES string. “Also recorded” adds a separate entry of the source. Like-named read-outs stand apart in the source and are kept apart here. Where only a bound is given, the exact number is not on record here.

The test system of data set [1] is J82 (bladder). The data set can be described thus: Proliferation EC50 on SISgel vs monolayer. Format: cell-based. To be noted: n = 6-8. From the text:
(§1) The libraries were obtained from the NCI (Diversity Library I) comprised of 2,918 compounds and a 10,000 compound diversity library from ChemBridge, Inc. (DiverSet-EXP). The NCI library is no longer available in the form used here, but how it was constructed is described (http://dtp.nci.nih.gov/branches/dscb/diversity_explanation.html). The ChemBridge library is a subset (Set Code NM1024) of the full 50,000 compound library (http://www.chembridge.com/screening_libraries/diversity_libraries/). Compounds were diluted to 100 μM before use. SISgel was prepared as described previously from powdered porcine small intestine submucosa obtained from Cook Biotech (W. Lafayette, IN). It is a natural product that is used extensively in tissue engineering as a bioscaffold. J82 bladder cancer cells and other cell lines were obtained from the ATCC (Bethesda, MD). The basic principle is that cells grown on any ECM are, in general, expected to show higher resistance to anticancer compounds than when grown on plastic. Therefore, compounds that show a higher activity toward cancer cells on a normal ECM than on a plastic surface would be candidates to target suppressed, micrometastatic cells. Efficacy in vitro was assessed by plating 30,000 cells in 50 μL of high glucose DMEM with penicillin-streptomycin and 10 % fetal calf serum on SISgel in a 96-well plate containing 50 μL of gelled SISgel per well. Cells were allowed to attach and assume the SISgel phenotype for 48 h. A matching plate without SISgel was prepared 24 h later by pipetting 3,000 cells in 100 μL of high glucose DMEM with penicillin-streptomycin and 10 % fetal calf serum into each well of 96 well plate. The cells were allowed to attach and grow for 24 h. These numbers of cells gave approximately equal replication rates at the time drug was added for cells grown on the plastic surface or SISgel as determined by the fraction of S-phase cells identified by flow cytometry. The cells were exposed to drug in fresh medium for 48 h, at which time the cell number was determined using the CFDA-AM cellular esterase proliferation assay (cat. #C1354, Life Technologies). For screening the results are reported as the ratio of cell count of cells on the plastic surface to the cell count on SISgel. An initial difference of 1.5 fold identified potential hits. All potential hits were confirmed in triplicate. Those compounds that replicated were confirmed by a full dose–response study yielding an EC50 using five wells per drug concentration. Data were analyzed using nonlinear regression to a sigmoid curve with Prism 4 (GraphPad Software, Inc., LaJolla, CA). Potential hits that were confirmed by dose–response using J82 were also tested with MDA-MB-435 breast cancer, PC-3 metastatic prostate cancer, Capan1 pancreatic cancer and the J82 bladder cancer cell lines.

In data set [2] the test system is protein tyrosine phosphatase (PTP). On the set-up: method as in PMID 9575179. To be noted: cited from earlier work.
In data set [3] the test system is cancer cells on SISgel or plastic. The data set can be described thus: Activity of leads and analogs on cancer cells grown on plastic vs SISgel (cell line not stated). The format is cell-based. As for the experimental part:
The NCI library is no longer available in the form used here, but how it was constructed is described (http://dtp.nci.nih.gov/branches/dscb/diversity_explanation.html). The ChemBridge library is a subset (Set Code NM1024) of the full 50,000 compound library (http://www.chembridge.com/screening_libraries/diversity_libraries/). Compounds were diluted to 100 μM before use. SISgel was prepared as described previously from powdered porcine small intestine submucosa obtained from Cook Biotech (W. Lafayette, IN). It is a natural product that is used extensively in tissue engineering as a bioscaffold. J82 bladder cancer cells and other cell lines were obtained from the ATCC (Bethesda, MD). […] Efficacy in vitro was assessed by plating 30,000 cells in 50 μL of high glucose DMEM with penicillin-streptomycin and 10 % fetal calf serum on SISgel in a 96-well plate containing 50 μL of gelled SISgel per well. Cells were allowed to attach and assume the SISgel phenotype for 48 h. A matching plate without SISgel was prepared 24 h later by pipetting 3,000 cells in 100 μL of high glucose DMEM with penicillin-streptomycin and 10 % fetal calf serum into each well of 96 well plate. The cells were allowed to attach and grow for 24 h. […] The cells were exposed to drug in fresh medium for 48 h, at which time the cell number was determined using the CFDA-AM cellular esterase proliferation assay (cat. #C1354, Life Technologies). For screening the results are reported as the ratio of cell count of cells on the plastic surface to the cell count on SISgel. An initial difference of 1.5 fold identified potential hits. All potential hits were confirmed in triplicate. […] Data were analyzed using nonlinear regression to a sigmoid curve with Prism 4 (GraphPad Software, Inc., LaJolla, CA). […]

In data set [4] the test system is Capan-1 (pancreatic). The data set can be described thus: Proliferation EC50 on SISgel vs monolayer. The format is cell-based. To be noted: Homo sapiens, n = 6-8.
Source text: as §1

Data set [5] relates to MDA-MB-435-GFP cells. The data set can be described thus: Flank xenograft model of ECM-suppressed cells co-injected with SISgel. The format is in vivo, nu/nu mice. The following applies: 75 mg/kg twice weekly; 6 flanks. On the procedure:
The efficacy of DT320 was assessed using a flank xenograft model of ECM-suppressed cancer cells that we developed, as well as an orthotopic model of “triple-negative” breast cancer. All animal protocols were reviewed and approved by the OUHSC Institutional Animal Care and Use Committee according to criteria established by the NIH Office of Laboratory Animal Welfare, and animals were housed 5 per cage with enrichment (tubes) and wood chips in the AALAC-accredited OUHSC Animal Facility with a 12 h light/dark cycle. Animals had access to water and food ad libatum. Animals were monitored daily by trained facility personnel. In the flank model, GFP-labeled cells were co-injected with SISgel, which produces a suppressed, normalized phenotype that persists after the SISgel is resorbed, but which can re-emerge into active tumor growth after 30–60 days. Animals were all female nu/nu mice (NCI National Laboratory Frederick/Charles River animal production program). An optimized number of 5 × 10^5 GFP-labeled MDA-MB-435 cells in 100 μL DMEM medium, without additives, were mixed with 100 μL of SISgel and were kept on ice until injection to prevent polymerization of the SISgel. […] The cells injected into the flanks remained as a non-growing spot, as assessed by fluorometry of the spots and the lack of mitoses seen in tissue sections, for about 3–5 weeks before some began resuming malignant growth. […]

The nature of data set [6]: in vivo. The following applies: mouse.
Data set [7] relates to 4T1 Luc2-GFP cells. The data set can be described thus: Orthotopic 4T1 syngeneic model of triple-negative breast cancer with natural lung metastasis. Format: in vivo, BALB/c mice. As for the experimental part:
4T1 Luc2-GFP cells (PerkinElmer, Waltham, MA) were cultured in DMEM high glucose media with 2 mM pyruvate, 2 mM glutamine, 2 % Pen/Strep and 10 % Cosmic Calf Serum (Mediatech, Manassas, VA). To prepare cells for injection they were removed from flasks, counted using the TC10 counting system (BioRad, Hercules, CA) and checked for viability. Cells were then washed with PBS, pelleted and taken up at a concentration of 75,000 cells/ml; 100 μl of cell suspension (7,500 cells) was injected subcutaneously (bevel side up) into mammary fat pad #4 of 8 weeks old female BALB/c mice (NCI National Laboratory Frederick/Charles River animal production program). All animals were weighed and tumors were measured using calipers three times weekly. Beginning one week after implantation, which is when micrometastatic cells begin to arrive in the lungs, animals were treated three times per week with intraperitoneal DT310 or DT320 at their NOAEL dose of 75 mg/kg three times week dissolved in saline or by osmotic pump. The osmotic pumps (Alzet #2004) delivered an NOAEL dose of 23.4 and 26.7 μg/h of DT310 and DT320, respectively, for 4 weeks and were implanted as directed subcutaneously posterior to scapulae. Docetaxel was delivered once weekly intraperitoneally at its MTD of 15 mg/kg and doxorubicin delivered once weekly at its MTD of 1 mg/kg in 5 % N-Methyl-2-pyrrolidone, 5 % Solutol HS, and 90 % saline. GFP positive cells were imaged with excitation of GFP emission using a Leica Model Z16 APO fluorescence microscope equipped for a wide field, a large depth of field and 0.57–9.2X zoom capability. GFP-positive objects were counted and scored as to whether they were […], clumps of less than ten cells without a visible vasculature, as determined by co-injection of tetramethylrhodamine labeled dextran (2 million MW).

Data set [8] concerns MDA-MB-435 cells. Description: Western blot of protein levels after treatment. Format: cell-based. As for the experimental part: Protein content of selected proteins identified by reversed phase protein array (see supplementary materials) as being involved mechanistically in the response to DT320 was assayed by Western blot as described using the following antibodies. The following antibodies were purchased from Cell Signaling Technology (Beverly, MA) and diluted per manufacturer’s directions: Rabbit mAb Anti-Phospho-AKT (Ser473) (D9E) XP® #4060, Rabbit mAb anti-p38 MAPK (D13E1) XP® #8690, Mouse mAb anti-Phospho-SAPK/JNK (Thr183/Tyr185) (G9) #9255, Rabbit mAb anti-Phospho-CHK1 (Ser345) (133D3) #2348, Rabbit polyclonal anti-Phospho-CHK2 (Thr68) Antibody #2661, Rabbit polyclonal anti-BAX Antibody #2772, Rabbit polyclonal anti-Vinculin Antibody #4650, Mouse mAb anti-Cyclin D1 (DCS6) #2926, Rabbit mAb anti-Cyclin E2 (D52F9) b #3741, […], Mouse mAb anti-Cyclin B1 (V152) #4135, Rabbit mAb anti-cleaved PARP (Asp214) (D64E10) XP® #5625, Rabbit mAb anti-cleaved Caspase-3 (Asp175) (5A1E) #9654, Rabbit mAb anti-Nanog (D73G4), #4903; Rabbit mAb anti-Oct4 (C52G3) #2890; and Rabbit mAb anti-Sox2 (D6D9) #3579. Specificity of each antibody is illustrated on the company’s web page. For negative controls, pre-immune rabbit IgG was used. No signal was detected in the control IgG samples. No intensities or contrast were modified, but the appropriate bands were cut out using PhotoShop to prepare composite gel images.
To elucidate the mechanism of DT310 and DT320, cell cycle analysis and Western blotting was performed. The proteins for Western blot were selected from preliminary results using reverse phase protein array (RPPA) for DT320 and DT321 treated MDA-MB-435 and T24 cells. […] Proteins within these clusters showing the largest differences in protein expression and that were related to known anticancer drug action were confirmed by Western blot. Docetaxel was used as a positive control because it is known to induce a cell cycle arrest and apoptosis signature.

For data set [9], the system named is MDA-MB-435 cells. Description: Proliferation (CFDA-AM esterase assay) of cells grown on SISgel, plastic or Matrigel, 48 h drug exposure. Format: cell-based. To be noted: for EC50: Homo sapiens.
Source text: as §1

Data set [10] has as its system mice. Description: Toxicity / maximum tolerated dose in mice. To be noted: mice.

What is called EC50 is the concentration that produces a half-maximal response. Turning to `N.N.[Cl][Pt][Cl]` [cisplatin, reference compound], the 50% effective concentration (EC50) was 102 ± 10.2 µM in data set [1] (J82 monolayer, read-out: EC50 Monolayer) and above 300 µM in data set [1] (J82 on SISgel, read-out: EC50 SISgel).

One may read the IC50 as the concentration needed to halve the response being measured. For `Cc1ccc(C(=O)Nc2ccc(S(=O)(=O)O)c3cc(S(=O)(=O)O)cc(S(=O)(=O)O)c23)cc1NC(=O)c1cccc(NC(=O)Nc2cccc(C(=O)Nc3cc(C(=O)Nc4ccc(S(=O)(=O)O)c5cc(S(=O)(=O)O)cc(S(=O)(=O)O)c45)ccc3C)c2)c1` [Suramin, reference compound], in data set [2], the PTP inhibition entry is recorded as “potent”. In addition, the SR in data set [3] (ratio IC50-p/IC50-S) came to 1.4. In addition, the IC50 in data set [3] (read-out: IC50-S) was 226 µM; in [3] (read-out: IC50-p), 321 µM.

With `Nc1ccn([C@@H]2O[C@H](CO)[C@@H](O)C2(F)F)c(=O)n1` [gemcitabine, reference compound], the EC50 in data set [4] (Capan-1 monolayer, read-out: EC50 Monolayer) turned out to be 78.2 ± 9.8 µM; in data set [4] (Capan-1 on SISgel, read-out: EC50 SISgel) it was 83.1 ± 10.7 µM. The “response of suppressed flank xenografts” value in data set [5] was “no response in all six flank xenografts; also recorded: remained present”.

Compound `CC(=O)O[C@@]12CO[C@@H]1C[C@H](O)[C@@]1(C)C(=O)[C@H](O)C3=C(C)[C@@H](OC(=O)[C@H](O)[C@@H](NC(=O)OC(C)(C)C)c4ccccc4)C[C@@](O)([C@@H](OC(=O)c4ccccc4)[C@H]21)C3(C)C` [docetaxel] returned an MTD in data set [6] (BALB/c, ip) of 15 mg/kg. Further, the primary tumor growth result in data set [7] (administered i.p. at MTD) is “little effect”. Moreover, in data set [7] (i.p. or osmotic pump), the “number of large multicellular micrometastases and vascularized macrometastases to the lung” value was “only minimal effects”. Moreover, in data set [8], the CHK1 expression result is recorded as “neither of the DT compounds nor docetaxel induced CHK1”, the “Cyclin A1 (CCNA1) expression” value is “sharply down-regulate”, the “Cyclin D1 (CCND1) expression” value is listed as “down-regulated” and the “cyclin B1 (CCNB1) expression” value is listed as “down-regulated”. Besides, the pSAP/JNK expression entry in data set [8] is given as “not”. In [8] (24 h), the pAKT expression result is “did not”.

For `COc1ccc(C2C3=C(CCCC3=O)NC3=C2C(=O)c2ccccc23)c(OC)c1OC` (stereo not drawn) [DT340, 10-(2,3,4-trimethoxyphenyl)-6,7,8,10-tetrahydro-5H-indeno[1,2-b]quinoline-9,11-dione], the MTD in [6] was below 10 mg/kg. Further, the 50% effective concentration (EC50) in [9] (MDA-MB-435 cells on SISgel, read-out: EC50-S) was 117 µM; in data set [9] (MDA-MB-435 cells on plastic, read-out: EC50-P) it was 219 µM. In addition, in [9] (ratio of EC50 on plastic versus SISgel), the “SI (EC50-P/EC50-S)” value is reported as 1.9. The “doses at which highly toxic to mice” value in data set [10] is recorded as “less than 10 mg/kg”. In addition, the “toxicity in mice” value in [10] was “dose-limiting toxicity”.
